How the values were obtained:
[1] = test system: chickweed (Stellaria media); experiment: Postemergence herbicidal activity; type: in vivo; settings: for pest or weed control at 250 ppm / pest or weed control at 125 ppm: Stellaria media, post-emergence, 336 h, Table 1, visual, after 2 weeks, read-out: Post-emergent % Control STEME; for pest or weed control at 125 ppm: rate 125 ppm; for Post-emergent Evaluation - % control STEME: Table 5
Outline: (§1)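 Foliar spray at 1st–2nd true leaf; 1 ppm ≈ 1 g/Ha. Carrier: acetone/water/IPA/DMSO plus crop oil concentrate and Triton X-155. Greenhouse, sub-irrigated. Visual rating vs untreated at 2 wk, 0 = no injury, 100 = complete kill.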

[2] = test system: cocklebur (Xanthium strumarium); experiment: Postemergence herbicidal activity; type: in vivo; settings: for pest or weed control at 250 ppm / pest or weed control at 125 ppm: Xanthium strumarium, post-emergence, 336 h, Table 1, visual, after 2 weeks, read-out: Post-emergent % Control XANST; for Post-emergent Evaluation - % control XANST: Table 4
Outline: as §1

[3] = test system: wild buckwheat (Polygonum convolvulus); experiment: Postemergence herbicidal activity; type: in vivo; settings: for pest or weed control at 250 ppm / pest or weed control at 125 ppm: Fallopia convolvulus, post-emergence, 336 h, Table 1, visual, after 2 weeks, read-out: Post-emergent % Control POLCO; for pest or weed control at 125 ppm: rate 125 ppm; for Post-emergent Evaluation - % control POLCO: Table 5
Outline: as §1

[4] = test system: morningglory (Ipomoea hederacea); experiment: Preemergence herbicidal activity; type: in vivo; settings: Ipomoea, 504 h, Table 6 (headed Post-emergent; text: preemergence), after 3 weeks, read-out: % Control IPOHE; for pest or weed control at 280 ppm: rate 280 ppm; for pest or weed control at 560 ppm: rate 560 ppm; for pest or weed control at 140 ppm: rate 140 ppm
Outline: (§2)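 Percent injury or lack of germination was judged by eye against untreated pots at 3 weeks, where 100 means complete kill. Before emergence, seeded 70:30 loam-sand soil received a surface spray of compound in water with 0.1% Tween 155 (acetone/DMSO carrier); greenhouse 15 h photoperiod, about 22-29° C.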

[5] = test system: pigweed (Amaranthus retroflexus); experiment: Preemergence herbicidal activity; type: in vivo; settings: Amaranthus retroflexus, 504 h, Table 6 (headed Post-emergent; text: preemergence), after 3 weeks, read-out: % Control AMARE; for pest or weed control at 280 ppm: rate 280 ppm; for pest or weed control at 560 ppm: rate 560 ppm; for pest or weed control at 140 ppm: rate 140 ppm
Outline: as §2

[6] = test system: velvetleaf (Abutilon theophrasti); experiment: Preemergence herbicidal activity; type: in vivo; settings: Abutilon theophrasti, 504 h, Table 6 (headed Post-emergent; text: preemergence), after 3 weeks, read-out: % Control ABUTH; for pest or weed control at 280 ppm: rate 280 ppm; for pest or weed control at 560 ppm: rate 560 ppm; for pest or weed control at 140 ppm: rate 140 ppm
Outline: as §2

[7] = test system: Canada thistle (Cirsium arvense); experiment: Range & Pasture Crop Testing (postemergence track sprayer); type: in vivo
Procedure: (§3) By applying the well-accepted probit analysis as described by J. Berkson in Journal of the […], 48, 565 (1953) and by D. Finney in “Probit Analysis” Cambridge University Press (1952), the above data can be used to calculate GR50 and GR80 values, which are defined as growth reduction factors that correspond to the effective dose of herbicide required to kill or control 50 percent or 80 percent, respectively, of a target plant.
(§4) Rates are calculated based upon 5 doses being applied. The high rate (X), followed by serial dilutions of 1/2×, 1/4×, 1/8× and 1/16×. Compound requirements are based upon the 187 L/ha carrier volume, specifications of the delivery system (Mandel track sprayer) and generating 24 mL of technical spray material to allow for the dilutions and overage in the sprayer. [formula]
(§5) All technical materials were formulated in 97:3 (acetone:DMSO) with 0.25% X-77. The total volume of solvent is maintained at less than 7%. An overhead Mandel track sprayer calibrated to deliver 187 L/ha was used for all treatment applications (postemergence). Picloram was included as a comparison treatment.
(§6) Solutions were applied with a mechanized track-sprayer at the following settings:
(§7) Spray height: 17 inches above top of plants
(§8) This provides an application volume of 187 L/ha.
(§9) Percent weed control (burn down) was evaluated 3 weeks after treatment. Visual control on a 0-100 linear scale was used, with 0 representing no control and 100 representing total control. Burn down ratings were taken for annual and perennial weed species.

[8] = test system: White Clover (Trifolium repens); experiment: as above; type: in vivo; settings: Table 10
Procedure: as §3, §4, §5, §6, §7, §8, §9

[9] = test system: field bindweed (Convolvulus arvensis); experiment: as above; type: in vivo; settings: Table 10; clover pasture; postemergence
Procedure: as §3, §4, §5, §6, §7, §8, §9

[10] = test system: pigweed (Amaranthus retroflexus); experiment: Postemergence herbicidal activity; type: in vivo; settings: Table 4
Outline: as §1

[11] = test system: velvetleaf (Abutillon theophrasti); experiment: Postemergence herbicidal activity; type: in vivo; settings: Table 4
Outline: as §1

corn (Zea mays) = experiment: Postemergence herbicidal activity, selectivity to corn; type: in vivo; settings: Table 4, crop (corn)
Procedure: (§10) Seeds of the desired test plant species were planted in Grace-Sierra MetroMix® 306 planting mixture, which typically has a pH of 6.0 to 6.8 and an organic matter content of about 30 percent, in plastic pots with a surface area of 64 square centimeters. When required to ensure good germination and healthy plants, a fungicide treatment and/or other chemical or physical treatment was applied. The plants were grown for 7-21 days in a greenhouse with an approximate 15 hr photoperiod which was maintained at about 23-29° C. during the day and 22-28° C. during the night. Nutrients and water were added on a regular basis and supplemental lighting was provided with overhead metal halide 1000-Watt lamps as necessary. The plants were employed for testing when they reached the first or second true leaf stage.
(§11) A weighed amount, determined by the highest rate to be tested, of each test compound was placed in a 20 mL glass vial and was dissolved in 4 mL of a 97:3 v/v (volume/volume) mixture of acetone and dimethyl sulfoxide (DMSO) to obtain concentrated stock solutions. […] The concentrated stock solutions obtained were diluted with an aqueous mixture containing acetone, water, isopropyl alcohol, DMSO, Atplus 411F crop oil concentrate, and Triton X-155 surfactant in a 48.5:39:10:1.5:1.0:0.02 v/v ratio to obtain spray solutions of known concentration. The solutions containing the highest concentration to be tested were prepared by diluting 2 mL aliquots of the stock solution with 13 mL of the mixture and lower concentrations were prepared by serial dilution of the stock solution. […]
(§12) The treated plants and control plants were placed in a greenhouse as described above and watered by sub-irrigation to prevent wash-off of the test compounds. After 2 weeks the condition of the test plants as compared with that of the untreated plants was determined visually and scored on a scale of 0 to 100 percent where 0 corresponds to no injury and 100 corresponds to complete kill.

[12] = test system: broadleaf dock (Rumex obtusifolia); experiment: Range & Pasture Crop Testing (postemergence track sprayer); type: in vivo; settings: Table 9; rate 70 g/Ha; 3 weeks after treatment
Procedure: as §4, §5, §6, §7, §8, §9

[13] = test system: crested wheatgrass (Agropyron cristatum) (grass crop); experiment: as above; type: in vivo; settings: Table 9, rate 70 g/Ha, 3 weeks after treatment
Procedure: as §4, §5, §6, §7, §8, §9

[14] = test system: barnyardgrass (Echinochloa crus-galli); experiment: Postemergence herbicidal activity; type: in vivo; settings: Table 3; weeds in rice; rate 250 ppm
Outline: as §1

[15] = test system: yellow nutsedge (Cyperus esculentus); experiment: Postemergence herbicidal activity; type: in vivo; settings: Table 3; weeds in rice; rate 250 ppm
Outline: as §1

rice (Oryza sativa) = experiment: Postemergence herbicidal activity, selectivity to rice; type: in vivo; settings: Table 3; crop (rice); rate 250 ppm
Procedure: as §10, §11, §12

[16] = test system: lambsquarters (Chenopodium album); experiment: Postemergence herbicidal activity; type: in vivo; settings: Table 5
Outline: as §1

[17] = test system: wheat (Triticum aestivum); experiment: Postemergence herbicidal activity, selectivity to wheat; type: in vivo; settings: Table 5, crop (wheat)
Procedure: as §10
A weighed amount, determined by the highest rate to be tested, of each test compound was placed in a 20 mL glass vial and was dissolved in 4 mL of a 97:3 v/v (volume/volume) mixture of acetone and dimethyl sulfoxide (DMSO) to obtain concentrated stock solutions. […] The concentrated stock solutions obtained were diluted with an aqueous mixture containing acetone, water, isopropyl alcohol, DMSO, Atplus 411F crop oil concentrate, and Triton X-155 surfactant in a 48.5:39:10:1.5:1.0:0.02 v/v ratio to obtain spray solutions of known concentration. The solutions containing the highest concentration to be tested were prepared by diluting 2 mL aliquots of the stock solution with 13 mL of the mixture and lower concentrations were prepared by serial dilution of the stock solution. Approximately 1.5 mL aliquots of each solution of known concentration were sprayed evenly onto each of the test plant pots using a DeVilbiss atomizer driven by compressed air pressure of 2 to 4 psi ([…]) to obtain thorough coverage of each plant. Control plants were sprayed in the same manner with the aqueous mixture. In this test an application rate of 1 ppm results in the application of approximately 1 g/Ha.
as §12

| melting point | Structure (SMILES) | pest or weed control at 250 ppm ([1]; rate 250 ppm) [%] | pest or weed control at 250 ppm ([2]; rate 250 ppm) [%] | pest or weed control at 250 ppm ([3]; rate 250 ppm) [%] | pest or weed control at 560 ppm [4] [%] | pest or weed control at 560 ppm [5] [%] | pest or weed control at 560 ppm [6] [%] | pest or weed control at 125 ppm [1] [%] | pest or weed control at 125 ppm ([2]; rate 125 ppm) [%] | pest or weed control at 125 ppm [3] [%] | other results |
| --- | --- | --- | --- | --- | --- | --- | --- | --- | --- | --- | --- |
| 65 to 66 °C | CCCCCCOC(=O)c1nc(Cl)cc(N)c1Cl [Compound 9, n-hexyl 4-amino-3,6-dichloropyridine-2-carboxylate] | 100 | 100 | 100 |  |  |  |  |  |  | pest or weed control at 280 ppm [4]: 100%; pest or weed control at 280 ppm [5]: 98%; pest or weed control at 280 ppm [6]: 100%; GR80 CIRAR ([7]; Table 10, clover pasture, postemergence): 20.7 g/ha; GR20 TRFRE [8]: 20.7 g/ha; GR80 CONAR [9]: 66 g/ha |
| 201 to 202 °C | Nc1c(Cl)c(C(=O)O)nc(Cl)c1Br [Compound 20, 4-Amino-3,6-dichloro-5-bromopyridine-2-carboxylic acid] | 90 | 85 | 50 | 100 | 100 | 100 |  |  |  | Post-emergent Evaluation - % control XANST ([2]; rate 250 ppm): 85%; Post-emergent Evaluation - % control AMARE ([10]; rate 250 ppm): 90%; Post-emergent Evaluation - % control ABUTH ([11]; rate 250 ppm): 70%; Post-emergent Evaluation - % control ZEAMX (corn (Zea mays); rate 250 ppm): 10% |
| 170 to 172 °C | CNc1cc(Cl)nc(C(=O)O)c1Cl [Compound 26, 4-N-Methylamino-3,6-dichloropyridine-2-carboxylic acid] |  |  |  | 100 | 100 | 100 | 90 | 90 | 95 | Post-emergent Evaluation - % control CIRAR ([7]; Table 9, rate 70 g/Ha, 3 weeks after treatment): 90%; Post-emergent Evaluation - % control RUMOB [12]: 100%; Post-emergent Evaluation - % control AGRCR [13]: 10% |
| 136 to 137 °C | CCNc1cc(Cl)nc(C(=O)O)c1Cl [Compound 27, 4-N-ethylamino-3,6-dichloropyridine-2-carboxylic acid] |  |  |  | 100 | 100 | 100 | 100 | 85 | 90 | post emergent evaluation - % control ECHCG [14]: 70%; post emergent evaluation - % control CYPES [15]: 50%; post emergent evaluation - % control ORYZA (rice (Oryza sativa)): 40% |
| 110 °C | CN(C)c1cc(Cl)nc(C(=O)O)c1Cl [Compound 33, 4-N,N-dimethylamino-3,6-dichloropyridine-2-carboxylic acid] | 100 | 100 | 100 | 100 | 100 | 98 |  |  |  | Post-emergent Evaluation - % control XANST ([2]; rate 125 ppm): 100%; Post-emergent Evaluation - % control AMARE ([10]; rate 125 ppm): 50%; Post-emergent Evaluation - % control ABUTH ([11]; rate 125 ppm): 80%; Post-emergent Evaluation - % control ZEAMX (corn (Zea mays); rate 125 ppm): 20% |
|  | COc1c(N)cc(Br)nc1C(=O)O [Compound 41, 4-Amino-6-bromo-3-methoxypyridine-2-carboxylic acid] |  |  |  |  |  |  | 90 | 80 | 100 | Post-emergent Evaluation - % control STEME ([1]; rate 250 ppm): 20%; Post-emergent Evaluation - % control CHEAL ([16]; rate 250 ppm): 90%; Post-emergent Evaluation - % control POLCO ([3]; rate 250 ppm): 100%; Post-emergent Evaluation - % control TRZAS ([17]; rate 250 ppm): 10%; pest or weed control at 280 ppm [4]: 85%; pest or weed control at 280 ppm [5]: 40%; pest or weed control at 280 ppm [6]: 90% |
| 208 °C (dec.) | Nc1c(F)c(C(=O)O)nc(Cl)c1Cl [Compound 43, 4-Amino-5,6-dichloro-3-fluoropyridine-2-carboxylic acid] |  |  |  |  |  |  | 85 | 90 | 60 | Post-emergent Evaluation - % control XANST ([2]; rate 250 ppm): 85%; Post-emergent Evaluation - % control AMARE ([10]; rate 250 ppm): 90%; Post-emergent Evaluation - % control ABUTH ([11]; rate 250 ppm): 70%; Post-emergent Evaluation - % control ZEAMX (corn (Zea mays); rate 250 ppm): 0%; pest or weed control at 140 ppm [4]: 70%; pest or weed control at 140 ppm [5]: 30%; pest or weed control at 140 ppm [6]: 80% |
| 131 to 133 °C | Nc1cc(C(F)(F)F)nc(C(=O)O)c1Cl [Compound 46, 4-Amino-3-chloro-6-trifluoromethylpyridine-2-carboxylic acid] | 60 | 90 | 100 |  |  |  |  |  |  | Post-emergent Evaluation - % control STEME ([1]; rate 31 ppm): 50%; Post-emergent Evaluation - % control CHEAL ([16]; rate 31 ppm): 100%; Post-emergent Evaluation - % control POLCO ([3]; rate 31 ppm): 100%; Post-emergent Evaluation - % control TRZAS ([17]; rate 31 ppm): 10%; pest or weed control at 140 ppm [4]: 100%; pest or weed control at 140 ppm [5]: 95%; pest or weed control at 140 ppm [6]: 95% |

Reference: patent US20010047099A1, “4-aminopicolinates and their use as herbicides” (priority 2000, published 2001)
